Results taken from patent publication US9346758B2, “Pyridinone compounds for use in photodynamic therapy” (UNIVERSITY OF EXETER, priority 2012, dated 2016).
Where “and” joins values, the source holds several entries; their conditions need not be identical. Identical values can stand only once.

Columns and labels:
[1] = system: human epithelial squamous cell carcinoma cells (A431); assay: PpIX fluorescence accumulation; settings: A431 cells;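 also: PpIX fluorescence accumulating inside A431 cells, read under dim light to limit photobleaching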
Procedure: (§1) Briefly, cells were seeded at 2×10^4 cells per well in a 96 well plate and left to adhere overnight. Test solutions were prepared on the day of the assay and applied to the cells. The level of PpIX produced was monitored using a multi-well fluorescent plate reader with a 400 (±30) nm excitation filter and a 645 (±40) nm emission filter, with the level of fluorescence produced being directly proportional to the level of PpIX present. Readings were taken hourly for 6 hours and were conducted under low light conditions to reduce photobleaching of PpIX.
These were tested alongside equimolar concentrations of ALA, ALA and CP94 (3), MAL, and MAL and CP94 (3), with all test compounds being investigated in human dermal fibroblasts (84BR; FIGS. 2A and 2B), human epithelial squamous cell carcinoma cells (A431; FIGS. 3A and 3B) and human glioblastoma cells (U87MG; FIGS. 4A and 4B).

[2] = system: human epithelial squamous cell carcinoma cells (A431); assay: Cell viability (NRU assay) after irradiation with varying incubation periods (2, 3 or 4 hours); format: cell-based; settings: A431 cells, then red light 37 J/cm^2, NRU assay, individual replicates
Procedure: Neutral red is an inert dye actively taken up and stored by viable (living) cells, an action which is unable to be performed by non-viable cells, therefore the level of neutral red taken up is directly proportional to the number of viable cells present following a given exposure. Following uptake of the dye, cells are lysed and the level of neutral red quantified using a plate reader.
After the relevant incubation period, the cells were irradiated with red light (37 J/cm^2; 635±2 nm; Aktilite, Galderma, UK).

[3] = system: human epithelial squamous cell carcinoma cells (A431); assay: PpIX fluorescence after varying incubation periods (2, 3 or 4 hours); settings: for PpIX fluorescence: A431 cells, individual replicates
Procedure: as §1

[4] = system: human dermal fibroblasts (84BR); assay: PDT efficacy: cell viability (NRU assay) following irradiation; settings: 84BR; added to ALA or MAL
Procedure: To assess the effect of AP2-18 (8) on PpIX-induced PDT efficacy, the same three cell types were exposed to equimolar concentrations of ALA, ALA and CP94 (3), MAL, MAL and CP94 (3), and AP2-18 (8) (as described previously) and incubated in the dark for 4 hours. The level of PpIX accumulation was then quantified as before, prior to irradiation with red light (37 J/cm^2; 635±2 nm; Aktilite, Galderma, UK).

For `NCC(=O)CCC(=O)O` [ALA, aminolevulinic acid], the PpIX accumulation ([1]; 500 μM (each component), exposure time 4 hours) was 22.67 and 25.67 and 27.67 and 38 and 36 and 43, the PpIX accumulation ([1]; 500 μM (each component), exposure time 5 hours) was 39.67 and 42.67 and 45.67 and 49.33 and 51.33 and the PpIX accumulation ([1]; 500 μM (each component), exposure time 6 hours) was 52.33 and 55.33 and 61.33 and 61.67 and 62.67. The PpIX accumulation ([1]; 1000 μM (each component), exposure time 4 hours) was 32.33 and 45.33 and 43.33 and 38.33, the PpIX accumulation ([1]; 1000 μM (each component), exposure time 5 hours) was 50.67 and 63.67 and 60.67 and 51.67 and 54.67 and 57.67 and the PpIX accumulation ([1]; 1000 μM (each component), exposure time 6 hours) was 63 and 79 and 72 and 65 and 68 and 75. The cell viability ([2]; 250 μM (each drug), incubation time 2 hours, 250 µM) was 104.2825 and 103.9063 and 123.5695 and 112.4377 and 117.6227 and 97.71 and 44.14 and 34.7079 and 50.73, the cell viability ([2]; 250 μM (each drug), incubation time 3 hours, 250 µM) was 124.0654 and 135.6267 and 95.31 and 55.77 and 55.32 and 62.02 and 56.05 and 85.67 and 55.08 and 120.1384 and 57.18 and 77.31 and the cell viability ([2]; 250 μM (each drug), incubation time 4 hours, 250 µM) was 82.01 and 64.97 and 20.14 and 125.0307 and 150.1618 and 127.1037 and 6.313 and 9.566 and 15.91. The cell viability ([2]; 500 μM (each drug), incubation time 2 hours, 500 µM) was 99.84 and 113.3557 and 112.7404 and 95.2285 and 69.94 and 82.25 and 65.56 and 62.54 and 64.53, the cell viability ([2]; 500 μM (each drug), incubation time 3 hours, 500 µM) was 118.05 and 77.38 and 69.99 and 77.18 and 78.53 and 70.11 and 42.15 and 44.3852 and 60.85 and 274.4678 and 51.1 and 55.1 and the cell viability ([2]; 500 μM (each drug), incubation time 4 hours, 500 µM) was 67.69 and 28.73 and 8.056 and 111.2275 and 105.7573 and 29.3785 and 108.0828 and 59.78 and 39.7. The cell viability ([2]; 1000 μM (each drug), incubation time 2 hours, 1000 µM) was 87.3 and 106.5283 and 118.4391 and 110.6882 and 113.0739 and 122.8714 and 119.6405 and 111.0759 and 80.15, the cell viability ([2]; 1000 μM (each drug), incubation time 3 hours, 1000 µM) was 146.327 and 79.29 and 120.4428 and 43.82 and 38.85 and 34.8 and 39.79 and 27.42 and 54.75 and 57.2548 and 73.63 and 60.04 and the cell viability ([2]; 1000 μM (each drug), incubation time 4 hours, 1000 µM) was 59.3 and 27.29 and 6.353 and 109.5082 and 86.85 and 18.6677 and 42.58 and 43.47 and 28.34. The PpIX fluorescence ([3]; 500 μM (each drug), incubation time 2 hours) was −3.67 and −1.67 and −2.67 and 15.33 and 12.33 and 19.33 and 3.667 and 0.6667 and 5, the PpIX fluorescence ([3]; 500 μM (each drug), incubation time 3 hours) was 7 and 9 and 6 and 27 and 24 and 32 and 2.667 (2×) and 4.667 and the PpIX fluorescence ([3]; 500 μM (each drug), incubation time 4 hours) was 22.67 and 25.67 and 27.67 and 38 and 36 and 43 and 5 and 4 and 6.667. The PpIX fluorescence ([3]; 1000 μM (each drug), incubation time 2 hours) was 1.33 and 9.33 and 14.33 and 12.33 and 15.33 and 16.33 and 8.333 and 6.333 and 9.667, the PpIX fluorescence ([3]; 1000 μM (each drug), incubation time 3 hours) was 14.33 and 25.33 and 26.33 and 27.33 and 28.33 and 32.33 and 12.33 and 10.33 and 9.333 and the PpIX fluorescence ([3]; 1000 μM (each drug), incubation time 4 hours) was 32.33 and 45.33 (2×) and 43.33 and 38.33 (2×) and 12.33 (2×) and 12.
`CCc1c(O)c(O)cc[n+]1CC.[Cl-]` [CP94] was tested, and the “effect of iron chelator on PpIX levels” value ([3]; A431, added to the ALA or MAL incubation period) was “improved PpIX levels” and the “effect of iron chelator on PDT effect of ALA and MAL” value [4] was “improved the PDT effect of both ALA and MAL in a concentration dependent manner”.
